Experiments:
xanthine oxidase [1] = molecular target: T1, xanthine oxidase (Homo sapiens, UniProt P47989); assay: Inhibition mode determination by Lineweaver-Burk plot; type: biochemical; conditions: 0.3, 0.4 or 0.6 mM substrate
Description: 798 μL of 0.1 unit xanthine oxidase in 200 mM sodium pyrophosphate/sodium chloride buffer (soudium pyrophosphate/HCl, pH 7.5) were mixed with 2 μL of DMSO dissolved melanoxetin, 7,8,3′,4′-tetrahydroxyflavon or okanin in 96-well plate at 37° C. for 5 minutes. 0.3, 0.4, or 0.6 mM substrate dissolved in double distilled water were added to start the reaction. OD 295 nm absorbance was detected every one minute by ELISA reader for total eight minutes at ambient temperature. Excel software was used for analyzing the result of enzyme.

xanthine oxidase [2] = molecular target: T1, xanthine oxidase; assay: Xanthine oxidase inhibition assay (uric acid formation, OD 295 nm); type: biochemical; conditions: for EC50: isolated major compounds, read-out: EC50 of inhibitory activity on xanthine oxidase; for xanthine oxidase inhibitory activity as fold of allopurinol: relative to allopurinol EC50
Description: Various parts of Acacia confusa were cold extracted by ethanol for 3 times, 7 days for each time. The extraction solution was vacuum filtered with Whatman #1 filter paper to remove impurities. The filtered extraction solution was concentrated by rotatory vacuum evaporator and lyophilized by a lyophilizer for xanthine oxidase inhibition assay. This assay was detecting xanthine derived uric acid, which was catalyzed by xanthine oxidase, at specific absorbance of UV 295 nm. Therefore, 2 μL of various concentrations of sample were mixed with 798 μL of sodium pyrophosphate buffer (pH 7.5) and 0.1 U of xanthine oxidase for 5 min at 37° C. 200 μL of 0.6 mM xanthine were added and vortex to mix thoroughly, and measured OD 295 nm absorbance by UV/visible light spectrophotometer. Finally, xanthine oxidase inhibitory rate of extracts (%) was calculated.

T1 sequence (P47989 whole entry, species assumed): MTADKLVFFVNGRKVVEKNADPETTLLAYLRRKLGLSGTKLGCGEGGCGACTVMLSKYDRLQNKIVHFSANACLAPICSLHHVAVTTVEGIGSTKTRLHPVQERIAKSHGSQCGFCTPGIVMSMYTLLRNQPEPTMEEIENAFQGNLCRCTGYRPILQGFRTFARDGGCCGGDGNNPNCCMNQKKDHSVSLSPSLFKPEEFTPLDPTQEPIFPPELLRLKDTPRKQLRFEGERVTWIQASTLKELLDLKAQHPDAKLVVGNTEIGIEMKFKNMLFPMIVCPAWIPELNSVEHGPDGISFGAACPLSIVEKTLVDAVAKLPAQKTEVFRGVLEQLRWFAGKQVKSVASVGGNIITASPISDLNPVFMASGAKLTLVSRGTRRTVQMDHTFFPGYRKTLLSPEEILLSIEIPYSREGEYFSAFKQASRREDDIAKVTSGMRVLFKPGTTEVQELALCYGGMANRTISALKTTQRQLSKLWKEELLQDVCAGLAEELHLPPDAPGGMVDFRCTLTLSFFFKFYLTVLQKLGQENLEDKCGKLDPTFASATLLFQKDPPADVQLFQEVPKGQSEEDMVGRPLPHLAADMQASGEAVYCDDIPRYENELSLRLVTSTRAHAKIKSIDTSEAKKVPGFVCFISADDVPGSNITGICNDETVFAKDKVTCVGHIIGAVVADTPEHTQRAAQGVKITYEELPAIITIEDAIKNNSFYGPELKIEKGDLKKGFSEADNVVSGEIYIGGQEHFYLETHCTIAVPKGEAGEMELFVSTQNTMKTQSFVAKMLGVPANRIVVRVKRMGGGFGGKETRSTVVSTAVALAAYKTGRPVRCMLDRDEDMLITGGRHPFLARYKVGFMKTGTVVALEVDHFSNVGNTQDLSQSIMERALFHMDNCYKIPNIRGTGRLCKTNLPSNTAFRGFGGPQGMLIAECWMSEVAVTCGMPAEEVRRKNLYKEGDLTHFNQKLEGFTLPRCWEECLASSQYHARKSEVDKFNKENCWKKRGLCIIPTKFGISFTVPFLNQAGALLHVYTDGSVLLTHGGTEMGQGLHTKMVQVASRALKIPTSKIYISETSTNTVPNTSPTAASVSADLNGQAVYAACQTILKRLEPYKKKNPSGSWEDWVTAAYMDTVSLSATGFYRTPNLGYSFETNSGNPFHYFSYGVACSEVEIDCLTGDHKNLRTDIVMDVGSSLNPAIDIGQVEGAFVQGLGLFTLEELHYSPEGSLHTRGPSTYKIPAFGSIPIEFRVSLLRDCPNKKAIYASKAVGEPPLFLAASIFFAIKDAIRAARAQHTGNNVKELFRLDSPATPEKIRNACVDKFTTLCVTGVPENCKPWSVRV

## O=c1cc(-c2ccc(O)c(O)c2)oc2c(O)c(O)ccc12 [7,8,3′,4′-tetrahydroxyflavon]
Xanthine oxidase [1]
  inhibition mode on xanthine oxidase (Lineweaver-Burk plot): competitive inhibition mode

## Oc1ncnc2[nH]ncc12 [allopurinol, reference compound]
Xanthine oxidase [2]; at concentration of 5 μg/mL
  inhibition at 5 µg/mL: 78%
Xanthine oxidase [1]
  inhibition mode on xanthine oxidase (Lineweaver-Burk plot): competitive inhibition mode

## O=c1c(O)c(-c2ccc(O)c(O)c2)oc2c(O)c(O)ccc12 [melanoxetin, 3,7,8,3′,4′-pentahydroxyflavone]
Xanthine oxidase [2]
  EC50: 274 nM
  xanthine oxidase inhibitory activity as fold of allopurinol: 17 fold
Xanthine oxidase [1]
  inhibition mode on xanthine oxidase (Lineweaver-Burk plot): competitive inhibition mode

## O=C(/C=C/c1ccc(O)c(O)c1)c1ccc(O)c(O)c1O [okanin, 3,4,2′,3′,4′-pentahydroxy trans-chalcone]
Xanthine oxidase [2]
  EC50: 74 nM
  xanthine oxidase inhibitory activity as fold of allopurinol: 63 fold
Xanthine oxidase [1]
  inhibition mode on xanthine oxidase (Lineweaver-Burk plot): non-competitive inhibition mode

— patent US20100310688A1, “ACACIA EXTRACTS AND THEIR COMPOUNDS ON INHIBITION OF XANTHINE OXIDASE” (NATIONAL TAIWAN UNIVERSITY, priority 2009, published 2010)
